Assays:
[1] = LNP size distribution, PDI and ζ potential by dynamic light scattering; type: physicochemical; details: LNP-siRNA formulations; for PDI / Size (d · nm): DLS
Protocol: LNPs were prepared by using microfluidic micro mixture (Precision NanoSystems, Vancouver, BC, Canada) as described by Cohen et. al. One volume of lipid mixtures (cationic lipid, DSPC, Chol, DMG-PEG and DSPE-PEG Mal at 50:10:38:1.5:0.5 mole ratio, […] total lipid concentration) in ethanol and three volumes of siRNA (1:16 w/w siRNA to lipid) containing acetate buffer solutions were injected through the micro mixer at a combined flow rate of 2 mL/minute (0.5 mL/min for ethanol and 1.5 mL/min for aqueous buffer). For labeled LNPs, 10% of Alexa-647 labeled siRNA were incorporated. For Cy5 labeled particles, 10% Cy5 labeled non-targeted siRNA was used. The resultant mixture was dialyzed against PBS (pH 7.4) for 16 h to remove ethanol.
LNPs size distribution and ζ potential were determined by dynamic light scattering using a Malvern nano ZS ζ-sizer (Malvern instruments, UK). For size measurements, LNPs were diluted 1:20 in PBS. […] For ζ potential measurements, LNPs were diluted 1:200 in DDW. In some cases, as indicated, size and zeta potential measurements were performed in water.

HEK 293 cells = test: In vitro expression of mKATE-pDNA, flow cytometry; type: cell-based; details: 72 hr; for mKATE expression: HEK 293, 0.6 nM pDNA; for Dose dependence of mKATE expression: HEK 293, different amount pDNA
Protocol: In vitro expression of pDNA in HEK 293 cells: HEK cells were treated with LNPs composed of either lipid1 or lipid 10 encapsulated with mKATE-pDNA at the concentration of 0.6 nM pDNA. After 72 hr, mKATE expression was analyzed by flow cytometry.
Dose dependent expression of pDNA in HEK 293 cells: HEK cells were treated with LNPs composed of either lipid1 or lipid 10 encapsulated with mKATE-pDNA at different amount pDNA. After 72 hr, mKATE expression was analyzed by flow cytometry.

Human T cells SupT1 = test: In vitro CD45 gene silencing by LNP-siCD45, flow cytometry; type: cell-based; details: LNP with siCD45, 48 hrs or 72 hrs, 0.4, 0.2, 0.1 μM siRNA
Protocol: (§1) Supt1 or NAR or OVCAR cells were placed in tissue culture 12-wells plates at a density of 1×10^5 cells with 1 mL of full medium. LNPs containing different siRNAs (siPLK1 or siCD45 or siLUC) were added to the wells and the concentration was mentioned in figures. Cells were isolated at different time intervals mentioned in the figures and analyzed by either flow cytometry (for siCD45 knockdown), or qPCR for analysis of PLK1 silencing. Apoptosis assay using PI/Annexin was analyzed by flow cytometry in case of siPLK1 induced cell death.
FIG. 1 depicts in vitro gene silencing effect lipid 1: Human T cells SupT1 were treated with lipid nanoparticle (LNP) comprising of cationic lipid 1 encapsulated siCD45 for 48 hrs (A) or 72 hrs (B) at different siRNA doses (0.4 μM, 0.2 μM, 0.1 μM).

[2] = tested on: Drug resistant human ovarian carcinoma cells (NAR); test: PLK-1 expression by qPCR after LNP-siPLK-1 or LNP-siLuc; type: cell-based; details: 72 hrs
Protocol: (§2) The mRNA levels of pololike kinase 1 (PLK1 gene) in cells was quantified by real-time PCR, forty eight or Seventy-two hours post-transfection. Total RNA was isolated using the E-Z RNA purification kit (Biological industries, Beit Haemek, Israel), and 1 μg of RNA from each sample was reverse transcribed into cDNA using the High Capacity cDNA Reverse Transcription Kit (Applied Biosystems, Foster City, CA), Quantification of cDNA (5 ng total) was performed on the step one Sequence Detection System (Applied Biosystems, Foster City, CA) using syber green (Applied Biosystems). GAPDH was chosen as a housekeeping gene.
as §1
Drug resistant human ovarian carcinoma cells (NAR) were treated with either LNP-siPLK-1 or LNP-siLuc nanoparticles Lipid 1 LNPs (A); Lipid 10&11 LNPs (B) for 72 hrs and PLK-1 expression was measured by qPCR as described in Example 1.

[3] = tested on: Human ovarian cancer cells (NAR cells); test: Apoptosis by FACS using PI/Annexin after siPLK1-LNPs; type: cell-based; details: 48 hr; for Apoptosis induced by siPLK1-LNPs: PI/Annexin FACS
Protocol: as §1
Human ovarian cancer cells (NAR cells) were treated with lipid1/siPLK1 nanoparticles for 48 hr at different siRNA concentrations (0.2 μM and 0.1 μM). Apoptotic cells were analyzed by FACS using PI/Annexin. […] Percentage of early apoptotic cells was higher in cells treated with siPLK1-LNPs at 0.2 uM dose of siPLK1.
Human ovarian cancer cells (NAR cells) were treated with either lipid10 or lipid 11/siPLK1 nanoparticles for 48 hr at different siRNA concentrations (0.1 μM and 0.05 μM). siLUC-LNPs used as a negative control. Apoptotic cells were analyzed by FACS using PI/Annexin.

[4] = tested on: Human ovarian carcinoma cells (OVCAR 8); test: PLK-1 expression by qPCR after LNP-siPLK1 or siLUC; type: cell-based; details: OVCAR 8, 72 hr
Protocol: as §2, §1
Human ovarian carcinoma cells (OVCAR 8) were treated with lipid 1 containing LNPs with either siPLK1 or siLUC for 72 hr and PLK-1 expression was measured by qPCR.

[5] = tested on: Spheroids of drug resistant human ovarian carcinoma cells (NAR); test: PLK-1 expression by qPCR in 3D spheroids; type: cell-based; details: 72 hr
Protocol: as §2
Spheroids of drug resistant human ovarian carcinoma cells (NAR) were treated with LNPs composed of lipid1 and with either siPLK-1 or siLuc s for 72 hr and PLK-1 expression was measured by qPCR. Spheroids are 3D cultures of tumor cells mimicking in vivo tumors.

[6] = tested on: Human colon carcinoma cells (HCT116); test: Toxicity of LNPs with ctl siRNA, XTT cell viability; type: cell-based; details: 72 hrs
Protocol: Human colon carcinoma cells (HCT116) were incubated with LNPs with ctl siRNA (see methods) for 72 hrs. The cell viability was measured by XTT assay. Toxicity of LNPs composed of either lipid 38 or lipid 55 is compared with gold standard LNPs composed of Dlin-MC3-DMA.

[7] = tested on: Human multiple myeloma suspension cells (U266); test: PLK1 expression by qPCR after siPLK1-LNPs; type: cell-based; details: U266, 48 hrs, normalized to LNPs-ctl siRNA treated cells
Protocol: as §2
Human multiple myeloma suspension cells (U266) were incubated with LNPs containing siPLK1 at different concentrations for 48 hrs. PLK1 expression was measured by qPCR. PLK1-mRNA levels were normalized to LNPs-ctl siRNA treated cells.

[8] = tested on: Human multiple myeloma suspension cells (U266); test: Cell viability after PLK1 silencing, XTT assay; type: cell-based; details: U266, 48 hrs
Protocol: Human multiple myeloma suspension cells (U266) were incubated with siPLK1-LNPs or siCtl-LNPs composed of either lipid 38 or 55 at different concentrations for 48 hrs. Cell viability affected by PLK1 down regulation was measured by XTT assay.

[9] = tested on: Human B-cell lymphoma suspension cells (RPMI-8226); test: Cell viability after PLK1 silencing, XTT assay; type: cell-based; details: RPMI-8226, 48 hrs
Protocol: Human B-cell lymphoma suspension cells (RPMI-8226) were incubated with siPLK1-LNPs or siCtl-LNPs composed of either lipid 38 or 55 at different concentrations for 48 hrs. Cell viability affected by PLK1 down regulation was measured by XTT assay.

[10] = tested on: Human multiple myeloma suspension cells (MM1); test: Cell viability after PLK1 silencing, XTT assay; type: cell-based; details: MM1, 48 hrs
Protocol: Human multiple myeloma suspension cells (MM1) were incubated with siPLK1-LNPs or siCtl-LNPs composed of either lipid 38 or 55 at different concentrations for 48 hrs. Cell viability affected by PLK1 down regulation was measured by XTT assay.

Compound	Zeta-potential (mV) [1] [mV]	PDI [1]	Size (d · nm) [1] [nm]	also measured
CCCCC/C=C\C/C=C\CCCCCCCCC(CCCCCCCC/C=C\C/C=C\CCCCC)OC(=O)CCCN(C)C [Dlin-MC3-DMA, reference compound]	−1	0.18	44.5	mKATE expression (HEK 293 cells): did not show any effect on mKATE expression
CCCCC/C=C\C/C=C\CCCCCCCCNN(CCCCCCCC/C=C\C/C=C\CCCCC)CCN(C)C [Lipid 1, 2-(1,2-di((9Z,12Z)-octadeca-9,12-dien-1-yl)hydrazinyl)-N,N-dimethylethan-1-amine]	18.5	0.14	45.1	CD45 gene down-regulation (Human T cells SupT1): down-regulate CD45 gene in hard to transfect T cells; PLK-1 expression, LNP-siLuc control siRNA [2]: did not affect plk1 expression; PLK-1 expression, LNP-siPLK-1 [2]: downregulating the proto-oncogene PLK1 efficiently; Percentage of early apoptotic cells ([3]; 0.2 uM dose of siPLK1): higher; Apoptosis induced by siPLK1-LNPs [3]: inducing apoptosis in cancer cell; Effect on cell cycle of siLUC-LNPs ([3]; control siRNA): no effect on cell cycle; PLK-1 expression, siPLK1-LNPs [4]: efficiently downregulating PLK1 gene compared to dlin-mc3-dma containing LNPs; PLK-1 expression, siPLK1-LNPs [5]: significantly downregulating PLK1 gene compared to siLUC-LNPs; mKATE expression (HEK 293 cells): mKATE expression was observed; Dose dependence of mKATE expression (HEK 293 cells): did not show any dose dependent expression
CCCCC/C=C\C/C=C\CCCCCCCCNN(CCCCCCCC/C=C\C/C=C\CCCCC)CCCCN(C)C [Lipid 2]	13.9	0.06	56.3	–
CCCCC/C=C\C/C=C\CCCCCCCCN(CCCCCCCC/C=C\C/C=C\CCCCC)OC(=O)CN(C)C [Lipid 9]	−13.6	0.04	75.1	–
CCCCC/C=C\C/C=C\CCCCCCCCN(CCCCCCCC/C=C\C/C=C\CCCCC)NC(=O)CCCN(C)C [Lipid 10]	18.5	0.08	50.5	PLK-1 expression, LNP-siLuc control siRNA [2]: no effect on plk1 expression; PLK-1 expression, LNP-siPLK-1 [2]: down regulating plk1 gene efficiently at different doses; Apoptosis induced by siPLK1-LNPs [3]: efficiently downregulating PLK1 gene followed by inducing apoptosis in NAR cells; mKATE expression (HEK 293 cells): mKATE expression was observed; Dose dependence of mKATE expression (HEK 293 cells): dose dependent expression of mKATE
CCCCC/C=C\C/C=C\CCCCCCCCN(CCCCCCCC/C=C\C/C=C\CCCCC)NC(=O)[C@@H](N)CCCCN(C)C [Lipid 11, 2-amino-6-(dimethylamino)-N′,N′-di((9Z,12Z)-octadeca-9,12-dien-1-yl)hexanehydrazide]	20.4	0.10	108.5	PLK-1 expression, LNP-siLuc control siRNA [2]: no effect on plk1 expression; PLK-1 expression, LNP-siPLK-1 [2]: down regulating plk1 gene efficiently at different doses; Apoptosis induced by siPLK1-LNPs [3]: efficiently downregulating PLK1 gene followed by inducing apoptosis in NAR cells
CCCCC/C=C\C/C=C\CCCCCCCCN(CCCCCCCC/C=C\C/C=C\CCCCC)OC(=O)CCCN(C)C [Lipid 14]	−3.6	0.09	44.3	–
CCCCC/C=C\C/C=C\CCCCCCCCN(CCCCCCCC/C=C\C/C=C\CCCCC)NCCN(C)C [Lipid 15]	10.1	0.11	52.5	–
CCCCC/C=C\C/C=C\CCCCCCCCN(CCCCCCCC/C=C\C/C=C\CCCCC)NC(=O)CCCN1CCN(C)CC1 [Lipid 21]	−2.8	0.16	67.7	–
CCCCC/C=C\C/C=C\CCCCCCCCN(CCCCCCCC/C=C\C/C=C\CCCCC)OC(=O)Cc1c[nH]cn1 [Lipid 33]	−10.8	0.15	46.0	–
CCCCC/C=C\C/C=C\CCCCCCCCN(CCCCCCCC/C=C\C/C=C\CCCCC)CCOC(=O)CCCN1CCN(C)CC1 [Lipid 55]	−1.28	0.17	97.0	Toxicity of LNPs (cell viability) [6]: less toxic than LNPs composed of Dlin-MC3-DMA; PLK1 expression, siPLK1-LNPs [7]: efficiently down regulate; Cell viability, siCtl-LNPs [8]: no effect on the cell viability; Cell viability, siPLK1-LNPs [8]: more effect on cell viability compared to Dlin-MC3-DMA LNPs; Cell viability, siCtl-LNPs [9]: no effect on the cell viability; Cell viability, siPLK1-LNPs [9]: dose dependent effect on B-cell lymphoma cancer cell viability; Cell viability, siCtl-LNPs [10]: no effect on the cell viability; Cell viability, siPLK1-LNPs [10]: dose dependent effect on multiple myeloma cancer cell viability

— patent publication US11851389B2, “Cationic lipids for nucleic acid delivery and preparation thereof” (RAMOT AT TEL-AVIV UNIVERSITY LTD., priority 2016, dated 2023)
